Assay results from PubChem BioAssay AID1259408 (Genetic Toxicology Data Bank (GENE-TOX), 2018).
Calls of active or inactive are those of the source. No rule for the calls is given here.

Tested on: GENE-TOX genotoxicity assays, various organisms and cells
Test: GENE-TOX mutagenicity studies
Settings: for call: Assay Type: In vivo carcinogenicity studies
[1] = Species/Cell Type: Nonhuman, Assay Code: CCG+, Evaluation Type: Evaluation A (Pre-1980)
[2] = Species/Cell Type: Nonhuman, Assay Type: Sister-chromatid exchange (SCE) in vitro, Assay Code: SC2+D, Dose Response: With dose response, Evaluation Type: Evaluation B (Post-1980)
[3] = Species/Cell Type: Syrian hamster embryo (SHE) cells, Assay Type: Cell transformation, clonal assay, Assay Code: CTC+, Evaluation Type: Evaluation A (Pre-1980)
[4] = Species/Cell Type: Chinese hamster lung (V79) cells, Assay Type: Forward gene mutation at the HPRT or ouabain locus, Assay Code: V79+, Evaluation Type: Evaluation A (Pre-1980)
[5] = Species/Cell Type: Nonhuman, Assay Code: CCGT, Evaluation Type: Evaluation A (Pre-1980)

**Q.** Which mutagenic call (Species/Cell Type: Bacillus subtilis (H17 vs M45), Assay Type: Rec-assay, spot test, DNA effects (bacterial DNA repair), Assay Code: REW+, Evaluation Type: Evaluation A (Pre-1980)) does the source give for `O=CNc1nc(-c2ccc([N+](=O)[O-])o2)cs1` here?
**A.** active; positive

**Q.** And the mutagenic call (Species/Cell Type: Escherichia coli WP2, Assay Type: Tryptophan reverse gene mutation, Assay Code: WP2+, Evaluation Type: Evaluation A (Pre-1980))?
**A.** active; positive

**Q.** And the mutagenic call (Species/Cell Type: Escherichia coli WP2 UVRA, Assay Type: Tryptophan reverse gene mutation, Assay Code: WPU+D, Dose Response: With dose response, Evaluation Type: Evaluation A (Pre-1980))?
**A.** active; positive

**Q.** What about the mutagenic call (Species/Cell Type: Escherichia coli polA (W3119 vs P3478), Assay Type: Rec-assay, DNA effects (bacterial DNA repair), Assay Code: RE1+, Evaluation Type: Evaluation A (Pre-1980)) of the same compound?
**A.** active; positive

**Q.** What about the mutagenic call (Species/Cell Type: Fischer rat embryo (RLV/1706) cells, Assay Type: Cell transformation, viral enhanced, Assay Code: CTR+, Evaluation Type: Evaluation A (Pre-1980)) of the same compound?
**A.** active; positive

**Q.** And the mutagenic call (Species/Cell Type: Mouse, Sex: Male, Assay Type: Sperm morphology, Assay Code: SPIT, Evaluation Type: Evaluation A (Pre-1980))?
**A.** no conclusion

**Q.** And the mutagenic call (Species/Cell Type: Neurospora crassa, Assay Type: Forward gene mutation, Assay Code: NEF+, Evaluation Type: Evaluation A (Pre-1980))?
**A.** active; positive

**Q.** And the mutagenic call (Species/Cell Type: Neurospora crassa, Assay Type: Reverse gene mutation, Assay Code: NER+, Evaluation Type: Evaluation A (Pre-1980))?
**A.** active; positive

**Q.** What about the call [1] of the same compound?
**A.** active; positive

**Q.** And the mutagenic call [2]?
**A.** active; positive

**Q.** And the mutagenic call (Species/Cell Type: Saccharomyces cerevisiae, Assay Type: Mitotic recombination or gene conversion, Assay Code: YEC+, Evaluation Type: Evaluation A (Pre-1980))?
**A.** active; positive

**Q.** And the mutagenic call (Species/Cell Type: Saccharomyces cerevisiae, Assay Type: Mitotic recombination or gene conversion, Assay Code: YEH+, Evaluation Type: Evaluation A (Pre-1980))?
**A.** active; positive

**Q.** What about the mutagenic call (Species/Cell Type: Salmonella typhimurium (one or more of the five standard strains: TA98, TA100, TA1535, TA1537, and TA1538), Assay Type: Histidine reverse gene mutation, Ames assay, Assay Code: SAL+, Evaluation Type: Evaluation A (Pre-1980)) of the same compound?
**A.** active; positive

**Q.** What about the mutagenic call (Species/Cell Type: Salmonella typhimurium and Saccharomyces cerevisiae, Assay Type: Forward and reverse gene mutation, mitotic recombination and gene conversion, DNA effects, body fluid assay, Assay Code: BFG+, Evaluation Type: Evaluation A (Pre-1980)) of the same compound?
**A.** active; positive

**Q.** What about the mutagenic call (Species/Cell Type: Salmonella typhimurium, Saccharomyces cerevisiae, Assay Type: Forward and reverse gene mutation, mitotic recombination and gene conversion, DNA effects, host-mediated assay, Assay Code: HM3+, Evaluation Type: Evaluation A (Pre-1980)) of the same compound?
**A.** active; positive

**Q.** And the mutagenic call [3]?
**A.** active; positive

**Q.** With `CC(=O)Oc1c(Cl)c(Cl)c(Cl)c(Cl)c1Cl` as the compound, how does the mutagenic call (Species/Cell Type: Bacillus subtilis (H17 vs M45), Assay Type: Rec-assay, spot test, DNA effects (bacterial DNA repair), Assay Code: REWT, Evaluation Type: Evaluation A (Pre-1980)) read?
**A.** no conclusion

**Q.** For `OC1C=Cc2c(cc3ccc4cccc5ccc2c3c45)C1O` (centres undefined), which mutagenic call [4] is on record?
**A.** active; positive

**Q.** How did the mutagenic call (Species/Cell Type: Drosophila melanogaster, Assay Type: Sex-linked recessive lethal gene mutation, Assay Code: SRLT, Evaluation Type: Evaluation A (Pre-1980)) turn out when `O=c1cc[nH]c(=O)[nH]1` was run?
**A.** no conclusion

**Q.** For `NC(=O)CCl`, which mutagenic call (Species/Cell Type: Syrian hamster embryo (SA7/SHE) cells, Assay Type: Cell transformation, viral enhanced, Assay Code: CT7+, Evaluation Type: Evaluation A (Pre-1980)) is on record?
**A.** active; positive

**Q.** `Cc1ccc2cc3c(c4c2c1CC4)C1OC1c1ccccc1-3` (centres undefined) was tested. Which mutagenic call [4] did it give?
**A.** active; positive

**Q.** And the mutagenic call (Species/Cell Type: Drosophila melanogaster, Assay Type: Sex-linked recessive lethal gene mutation, Assay Code: SRL+, Evaluation Type: Evaluation A (Pre-1980))?
**A.** active; positive

**Q.** And the mutagenic call (Species/Cell Type: Mouse prostate cells, Assay Type: Cell transformation, Assay Code: CTM+, Evaluation Type: Evaluation A (Pre-1980))?
**A.** active; positive

**Q.** What about the call [5] of the same compound?
**A.** no conclusion

**Q.** And the mutagenic call [3]?
**A.** active; positive

**Q.** `OCc1c2ccccc2c(CO)c2c1ccc1ccccc12` was tested. Which mutagenic call (Species/Cell Type: Chinese hamster lung (V79) cells, Assay Type: Forward gene mutation at the HPRT or ouabain locus, Assay Code: V79-*, Activation: With metabolic activation, Evaluation Type: Evaluation A (Pre-1980)) did it give?
**A.** inactive; negative

**Q.** What about the call [5] of the same compound?
**A.** no conclusion

**Q.** With `CCN(CC)CCn1c2ccc(C)c3c2c([n+]1[O-])-c1ccc(Cl)cc1S3` as the compound, how does the mutagenic call (Species/Cell Type: Salmonella typhimurium (one or more of the five standard strains: TA98, TA100, TA1535, TA1537, and TA1538), Assay Type: Histidine reverse gene mutation, Ames assay, Assay Code: SALT, Evaluation Type: Evaluation A (Pre-1980)) read?
**A.** no conclusion

**Q.** For `CCCCOc1ccc(CC(=O)NOC=O)cc1`, which mutagenic call [2] is on record?
**A.** active; positive

**Q.** Which mutagenic call (Species/Cell Type: Mammalian polychromatic erythrocytes, Assay Type: Micronucleus test, chromosome aberrations, Assay Code: MNT+U, Dose Response: Unconfirmed positive response, Evaluation Type: Evaluation B (Post-1980)) does the source give for `COc1cc(CNC(=O)CCCC/C=C/C(C)C)ccc1O` here?
**A.** active; positive

**Q.** Which mutagenic call (Species/Cell Type: Chinese hamster lung (V79) cells, Assay Type: Forward gene mutation at the HPRT or ouabain locus, Assay Code: V79-, Evaluation Type: Evaluation A (Pre-1980)) does the source give for `Cc1ccc2cc3c(c4c2c1CC4)[C@H](O)[C@@H](O)c1ccccc1-3` here?
**A.** inactive; negative

**Q.** And the mutagenic call (Species/Cell Type: Mouse prostate cells, Assay Type: Cell transformation, Assay Code: CTM-, Evaluation Type: Evaluation A (Pre-1980))?
**A.** inactive; negative

**Q.** What about the call [5] of the same compound?
**A.** no conclusion

**Q.** And the mutagenic call (Species/Cell Type: Salmonella typhimurium (one or more of the five standard strains: TA98, TA100, TA1535, TA1537, and TA1538), Assay Type: Histidine reverse gene mutation, Ames assay, Assay Code: SAL+*, Activation: With metabolic activation, Evaluation Type: Evaluation A (Pre-1980))?
**A.** active; positive

**Q.** How did the mutagenic call (Species/Cell Type: Nonhuman, Assay Type: Sister-chromatid exchange (SCE) in vitro, Assay Code: SC2T, Evaluation Type: Evaluation B (Post-1980)) turn out when `C[As+](C)(C)CC(=O)[O-]` was run?
**A.** no conclusion

**Q.** With `O=C(CCN1CCCC1)c1ccc2c(c1)OCO2` as the compound, how does the mutagenic call (Species/Cell Type: Salmonella typhimurium, Assay Type: Forward and reverse gene mutation, host-mediated assay, Assay Code: HMA-, Evaluation Type: Evaluation A (Pre-1980)) read?
**A.** inactive; negative

**Q.** For `CC(C)=O`, which mutagenic call (Species/Cell Type: Arabidopsis species, Assay Type: Gene mutation, Assay Code: ARM-, Evaluation Type: Evaluation A (Pre-1980)) is on record?
**A.** inactive; negative

**Q.** What about the mutagenic call (Species/Cell Type: Fischer rat embryo (RLV/1706) cells, Assay Type: Cell transformation, viral enhanced, Assay Code: CTR-, Evaluation Type: Evaluation A (Pre-1980)) of the same compound?
**A.** inactive; negative

**Q.** What about the mutagenic call (Species/Cell Type: Human, Assay Type: Sister-chromatid exchange (SCE) in vitro, Assay Code: SC1T, Evaluation Type: Evaluation B (Post-1980)) of the same compound?
**A.** no conclusion

**Q.** And the mutagenic call (Species/Cell Type: Mammalian polychromatic erythrocytes, Assay Type: Micronucleus test, chromosome aberrations, Assay Code: MNT-, Evaluation Type: Evaluation B (Post-1980))?
**A.** inactive; negative

**Q.** And the mutagenic call (Species/Cell Type: Mouse embryo (AKR/ME) cells, Assay Type: Cell transformation, Assay Code: CTK-, Evaluation Type: Evaluation A (Pre-1980))?
**A.** inactive; negative

**Q.** And the mutagenic call (Species/Cell Type: Nonhuman, Assay Type: Chromosome aberrations in vitro, Assay Code: CY&-, Evaluation Type: Evaluation A (Pre-1980))?
**A.** inactive; negative

**Q.** What about the mutagenic call (Species/Cell Type: Nonhuman, Assay Type: Sister-chromatid exchange (SCE) in vitro, Assay Code: SC2-, Evaluation Type: Evaluation A (Pre-1980)) of the same compound?
**A.** inactive; negative

**Q.** What about the mutagenic call (Species/Cell Type: Salmonella typhimurium (one or more of the five standard strains: TA98, TA100, TA1535, TA1537, and TA1538), Assay Type: Histidine reverse gene mutation, Ames assay, Assay Code: SAL-, Evaluation Type: Evaluation A (Pre-1980)) of the same compound?
**A.** inactive; negative

**Q.** What about the mutagenic call (Species/Cell Type: Syrian hamster embryo (SHE) cells, Assay Type: Cell transformation, clonal assay, Assay Code: CTC-, Evaluation Type: Evaluation A (Pre-1980)) of the same compound?
**A.** inactive; negative

**Q.** With `C#C[C@]1(O)CC[C@H]2[C@@H]3CCC4=CC(=O)CC[C@@H]4[C@H]3CC[C@@]21C` as the compound, how does the mutagenic call (Species/Cell Type: Human, Sex: Male, Assay Type: Sperm morphology, Assay Code: SPH+, Evaluation Type: Evaluation A (Pre-1980)) read?
**A.** active; positive

**Q.** What about the call [1] of the same compound?
**A.** active; positive

**Q.** For `CS(=O)(=O)OC[C@@H](O)[C@H](O)COS(C)(=O)=O`, which mutagenic call (Species/Cell Type: Allium cepa, Assay Type: Chromosome aberrations, Assay Code: ALC+, Evaluation Type: Evaluation A (Pre-1980)) is on record?
**A.** active; positive

**Q.** What about the mutagenic call (Species/Cell Type: Arabidopsis species, Assay Type: Gene mutation, Assay Code: ARM+, Evaluation Type: Evaluation A (Pre-1980)) of the same compound?
**A.** active; positive
